Several values for one entry are separate records, joined by “and”; a condition that tells them apart may be missing. Equal entries are not always repeated.
Test system: 324938-238-R-J1-PDC complex spheroids viability
Assay: Anticancer human tumor 324938-238-R-J1-PDC patient-derived bladder carcinoma cell line growth inhibition [CLK]
Conditions: for viability, T/C: stronger effect = lower value
Description: A high-throughput screen of multi-cell type tumor spheroids was designed to identify active combinations of […] and targeted small molecules. Complex spheroids include a stromal component modeled by human endothelial cells (HUVEC) and fibroblasts modeled by human mesenchymal stem cells (MSCs). The concentration ranges selected for each drug and investigational agent were based upon clinically achievable concentrations if the clinical Cmax of the agent was known.
Compounds. The drugs and investigational agents: cirtuvivint (SM08502; NSC835563), CC-671 (NSC850746), vemurafenib (NSC761431), tapotoclax (NSC804041), sotorasib (NSC818433), adagrasib (NSC831453), MRTX-1133 (NSC836407), BAY2416964 (NSC825713), copanlisib (NSC816437), inavolisib (NSC800729), abemaciclib (NSC768073), osimertinib (NSC779217), entinostat (NSC756642), eltanexor (KPT-8602, NSC794443), venetoclax (NSC766270), ceralasertib (NSC777638), bortezomib (NSC756655), olaparib (NSC753686), talazoparib (NSC767125), alisertib (NSC759677), peposertib (NSC802822), gemcitabine (NSC613327), 5-fluorouracil (NSC19893), SN-38 (NSC673596), oxaliplatin (NSC266046), paclitaxel (NSC125973), and doxorubicin (NSC123127), were obtained from the National Cancer Institute (NCI) Developmental Therapeutics Program Chemical Repository. The FDA-approved anticancer drug set is available from the Developmental Therapeutics Program at https://dtp.cancer.gov/organization/dscb/obtaining/available plates.htm. […] The stock solutions were prepared in dimethyl sulfoxide (DMSO, Sigma-Aldrich, St. Louis, MO, cat. D2650), except for the platinum complexes which were prepared in saline (Quality Biological, Gaithersburg, MD, cat. 114-055-101), at 800-fold the tested concentration and stored at -70 degrees C prior to their use. All drugs and investigational agents were tested over a range starting from a high concentration at or near the clinical Cmax and decreasing in half-log increments. If the clinical Cmax for an agent had not been determined, the highest concentration tested was 10 microM.
Cell Culture. All cells were maintained in an incubator at 37 degrees C and 5% CO2 with 95% humidity. The PDC lines were cultured according to standard operating procedures established by the NCI PDMR. Briefly, all PDCs were thawed and cultured in Matrigel-coated flasks prepared with a working solution of 1X Ham's F-12 nutrient mix, without supplementation (Invitrogen, Waltham, MA, cat. 11765054), 100 U/mL penicillin-streptomycin (Invitrogen, cat. 15140122), and 2.5% Matrigel (Corning Inc., Corning, NY, cat. 354248) for the first three passages. The 947758-054-R-J2-PDC line was cultured in 6B/Colon 1A media, which includes advanced DMEM/F-12 (Thermo Fisher Scientific, cat. 12634028), 10 mM HEPES (Thermo Fisher Scientific, cat. 15630080), 1X GlutaMAX supplement (Thermo Fisher Scientific, cat. 35050061), 0.1 mg/mL primocin (InvivoGen, cat. ant-pm-2), 10% defined fetal bovine serum, heat inactivated (HyClone Laboratories Inc., cat. SH30070.03HI), 1.25 mM N-Acetyl-L-cysteine (Sigma-Aldrich, cat. A9165), 10 mM nicotinamide (Sigma-Aldrich, cat. N0636), 1X B-27 supplement (Thermo Fisher Scientific, cat. 17504044), 1X N-2 supplement (Thermo Fisher Scientific, cat. 17502048), and 10 microM Y-27632 dihydrochloride (Tocris Bioscience, cat. 1254). The 876862-298-R-J1-PDC was cultured in 6E media, which includes all 6B/Colon 1A media components plus 50% L-WRN conditioned media (ATCC, cat. CRL-3276), 50 ng/mL recombinant human EGF recombinant protein (hEGF; Thermo Fisher Scientific, cat. PHG0311), 10 ng/mL recombinant human fibroblast growth factor 10 (hGFG-10; PeproTech, cat. 100-26), 1 ng/mL recombinant human fibroblast growth factor 2 (hFGF-2; PeproTech, cat. 100-18B), and 1 µM prostaglandin E2 (PGE2; Tocris, cat. 2296). The 227483-062-R1-J1-PDC line was cultured in Panc media, containing all 6E components except hFGF-2, with the addition of 500 nM SB-431542 (Selleckchem, cat. S1067) and 10 nM gastrin (Tocris, cat. 3006). […]
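Also: viability read after seven days of drug exposure.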
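For viability, T/C in this document: 100% = DMSO vehicle control wells.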

`CC(=O)O[C@H]1C(=O)[C@@]2(C)[C@H]([C@H](OC(=O)c3ccccc3)[C@]3(O)C[C@H](OC(=O)[C@H](O)[C@@H](NC(=O)c4ccccc4)c4ccccc4)C(C)=C1C3(C)C)[C@]1(OC(C)=O)CO[C@@H]1C[C@@H]2O` was tested, and the viability, T/C (compound 0.0316 µM) was 12.8% and 11.6%, the viability, T/C (compound 0.1 µM) was 12% and the viability, T/C (compound 0.316 µM) was 11.3% and 13.4%. For the same compound, the viability, T/C (compound 1 µM) was 12.2% and 10.1%, the viability, T/C (compound 3.16 µM) was 13.7% and 12.3% and the viability, T/C (compound 10 µM) was 15.3% and 14.2%. For the same compound, the IC50 (curve of compound) was < 31.6 nM.

For `COc1ccc([C@@H](O)c2cc(-c3ncnc4cc(N5CCOCC5)ccc34)c(F)cc2Cl)nn1`, the viability, T/C (compound 0.0316 µM) was 78% and 79.6%, the viability, T/C (compound 0.1 µM) was 81% and 88.1% and the viability, T/C (compound 0.316 µM) was 68.9% and 55.6%. The viability, T/C (compound 1 µM) was 59.9% and 71%, the viability, T/C (compound 3.16 µM) was 52.4% and 50.7% and the viability, T/C (compound 10 µM) was 37.4% and 36.7%. The IC50 (curve of compound) was 3300 nM and 3510 nM.

In the case of `COc1cccc2c1C(=O)c1c(O)c3c(c(O)c1C2=O)CC(O)(C(=O)CO)CC3OC1CC(N)C(O)C(C)O1` (stereo not drawn), the viability, T/C (compound 0.0316 µM) is reported as 18.6% and 20.6%, the viability, T/C (compound 0.1 µM) is reported as 12.3% and 18% and the viability, T/C (compound 0.316 µM) is reported as 7.21% and 8.55%. For the same compound, the viability, T/C (compound 1 µM) was 1.1% and 0.74%, the viability, T/C (compound 3.16 µM) was 0.07% and 0.13% and the viability, T/C (compound 10 µM) was 0.18% and 0.15%. For the same compound, the IC50 (curve of compound) was < 31.6 nM.

With `C=CC(=O)N1CCN(c2nc(=O)n(-c3c(C)ccnc3C(C)C)c3nc(-c4c(O)cccc4F)c(F)cc23)C(C)C1` (stereo not drawn) + CN1CCN(c2cc(C(=O)Nc3cc4cc(-c5cnn(C)c5)ccc4cn3)ccn2)CC1 the IC50 (curve of first compound, second compound 0.0316 µM) was > 10000 nM, the IC50 (curve of first compound, second compound 0.1 µM) was > 10000 nM and the IC50 (curve of first compound, second compound 0.316 µM) was < 31.6 nM. For the same compound, the IC50 (curve of first compound, second compound 1 µM) was < 31.6 nM, the IC50 (curve of first compound, second compound 3.16 µM) was < 31.6 nM and the IC50 (curve of first compound, second compound 10 µM) was < 31.6 nM. It also gave a viability, T/C (second compound 0.0316 µM, first compound 0.0316 µM) of 79.2%, a viability, T/C (second compound 0.0316 µM, first compound 0.1 µM) of 77.8% and a viability, T/C (second compound 0.0316 µM, first compound 0.316 µM) of 84.5%. The viability, T/C (second compound 0.0316 µM, first compound 1 µM) was 103%, the viability, T/C (second compound 0.0316 µM, first compound 3.16 µM) was 87.4% and the viability, T/C (second compound 0.0316 µM, first compound 10 µM) was 82.7%. The viability, T/C (second compound 0.1 µM, first compound 0.0316 µM) was 59.6%, the viability, T/C (second compound 0.1 µM, first compound 0.1 µM) was 61.4% and the viability, T/C (second compound 0.1 µM, first compound 0.316 µM) was 63.2%. The viability, T/C (second compound 0.1 µM, first compound 1 µM) was 64.8%, the viability, T/C (second compound 0.1 µM, first compound 3.16 µM) was 66.6% and the viability, T/C (second compound 0.1 µM, first compound 10 µM) was 59.9%. For the same compound, the viability, T/C (second compound 0.316 µM, first compound 0.0316 µM) was 27.4%, the viability, T/C (second compound 0.316 µM, first compound 0.1 µM) was 25% and the viability, T/C (second compound 0.316 µM, first compound 0.316 µM) was 27.4%. For the same compound, the viability, T/C (second compound 0.316 µM, first compound 1 µM) was 28.9%, the viability, T/C (second compound 0.316 µM, first compound 3.16 µM) was 35.5% and the viability, T/C (second compound 0.316 µM, first compound 10 µM) was 27.8%. For the same compound, the viability, T/C (second compound 1 µM, first compound 0.0316 µM) was 1.25%, the viability, T/C (second compound 1 µM, first compound 0.1 µM) was 1.85% and the viability, T/C (second compound 1 µM, first compound 0.316 µM) was 1.99%. The viability, T/C (second compound 1 µM, first compound 1 µM) was 1.7%, the viability, T/C (second compound 1 µM, first compound 3.16 µM) was 1.08% and the viability, T/C (second compound 1 µM, first compound 10 µM) was 0.78%. For the same compound, the viability, T/C (second compound 3.16 µM, first compound 0.0316 µM) was 0.13%, the viability, T/C (second compound 3.16 µM, first compound 0.1 µM) was 0.25% and the viability, T/C (second compound 3.16 µM, first compound 0.316 µM) was 0.19%. For the same compound, the viability, T/C (second compound 3.16 µM, first compound 1 µM) was 0.16%, the viability, T/C (second compound 3.16 µM, first compound 3.16 µM) was 0.12% and the viability, T/C (second compound 3.16 µM, first compound 10 µM) was 0.25%. The viability, T/C (second compound 10 µM, first compound 0.0316 µM) was 0.2%, the viability, T/C (second compound 10 µM, first compound 0.1 µM) was 0.19% and the viability, T/C (second compound 10 µM, first compound 0.316 µM) was 0.18%. The viability, T/C (second compound 10 µM, first compound 1 µM) was 0.15%, the viability, T/C (second compound 10 µM, first compound 3.16 µM) was 0.16% and the viability, T/C (second compound 10 µM, first compound 10 µM) was 0.33%.
